# Results from patent US12486218B2, “Compounds advantageous in the treatment of central nervous system diseases and disorders” (AurimMed Pharma, Inc., priority 2008, dated 2025).
# Assays:
# rats [1] = test: MES test, rats p.o.; assay type: in vivo; settings: at 30 mg/kg
# mice [2] = test: 6 Hz (minimal clonic seizure) model, mice i.p.; assay type: in vivo; settings: for 6 Hz (32 mA), fraction of animals: mice i.p.; for activity in the 6 Hz (minimal clonic seizure) model: mice, at 100 mg/kg
# mice [3] = test: Effects observed in mice after i.p. injection (CNS stimulation, diarrhea); assay type: in vivo; settings: for effect produced in the mice: 30 minutes after i.p. injection of 100 mg/kg
# Experimental: In addition, two further tertiary amide compounds, BJ and BT, produced diarrhea in the mice 30 minutes after i.p. injection of 100 mg/kg of each.
# mice [4] = test: Maximal Electroshock Seizure (MES) test, mice i.p.; assay type: in vivo; settings: for activity in the MES test: at 100 mg/kg; for ED50: Mus musculus, ip
# mice [5] = test: Subcutaneous Metrazol Seizure threshold (s.c. MET) test, mice i.p.; assay type: in vivo; settings: for activity in the s.c. MET test: at 300 mg/kg; for ED50: Mus musculus
# SMN2 promoter = SMN2 promoter β-lactamase reporter assay in NSC34 motor neuron-like cells; assay type: cell-based; settings: for SMN2 promoter activity: treatment for 19 hours at a concentration of 1 μM
# Experimental: FIG. 30 illustrates a screen for SMN2 expression of a number of compounds described herein.
# SMN2 promoter activity was measured using NSC34 motor neuron-like cells stably transfected with a β-lactamase (BLA) reporter gene under the control of a 3.4-kilobase fragment of the SMN2 promoter. D156844 was used as a positive control for this assay.
# in vivo = settings: mouse, ip
# Experimental: (§1) The animal testing was performed according to methods known in the relevant art.
# mice [6] = test: Mouse formalin pain model; assay type: in vivo; settings: 76 mg/kg i.p., at 0.5 hours
# [7] = tested on: rat dopaminergic N27 cells; test: N27 protection assay against oxidative stress (H2O2 or MPP+; MTT and LDH); assay type: cell-based; settings: drug 24 hours before 200 μM H2O2 or 640 μM MPP+
# Description: FIGS. 20A-25D data are shown illustrating neuroprotective and neuroregenerative effects observed in rat dopaminergic N27 cells. Rat dopaminergic N27 cells are commonly used in in vitro and in vivo model systems for studying Parkinson's disease. Parkinson's disease is a neurodegenerative disorder of the central nervous system that affects more than 6 million people worldwide. The motor symptoms of Parkinson's disease result from the death of dopamine generating cells in the substantia nigra, a region of the midbrain.
# The N27 rat dopaminergic neuron cell line was harvested from E12 rat mesencephalic tissue and was transfected with SV40 to immortalize the cell line. The N27 cell line, when injected into the striata of 6-hydroxydopamine-lesioned rats (an animal model of PD) caused a time-dependent improvement in neurological deficits. This immortalized cell line has been carefully characterized in studies of dopamine biosynthesis, neurotoxicity and used as a dopaminergic neuron model studies.
# The N27 in vitro Parkinson's disease model included a test of cell viability and cell toxicity in response to exposure to oxidative stress (e.g., either 200 μM H2O2 or 640 μM MPP+).
# Cell viability was tested using the MTT assay. The MTT assay is a colorimetric analysis based on the activities of mitochondrial NAD(P)H-dependent cellular oxidoreductase enzymes. These enzymes are capable of reducing the tetrazolium dye, MTT [3-(4,5-dimethylthiazol-2-yl)-2,5-diphenyltetrazolium] bromide, to an insoluble formazan (purple). […] More viable cells equal more accumulation of the insoluble formazan dye.
# Cell toxicity was tested using the […] (LDH) assay. Cells that are stressed secrete LDH. In general, the more cells are stressed, the LDH they secrete into their media. The LDH assay is a reliable colorimetric assay to measure quantitatively the […] (LDH) that is released into the cell culture media from damaged cells as a biomarker for cytotoxicity and cytolysis.
# FIGS. 20A-25D present data from two types of assays: protection and recovery assays. In the protection assays, the drug candidate was applied to the cells at various concentrations for 24 hours, followed by the exposure to oxidative stress (either 200 μM H2O2 or 640 μM MPP+) for measuring neuroprotective effect. H2O2 provides a broad measure of oxidative stress, while MPP+ gives a more specific oxidative stress to dopaminergic neurons.
# The protection assay results are shown in panels A-C of FIGS. 20-25 In the recovery assays, the cells were first damaged by exposure to H2O2 and then various concentrations of the drug were applied to the cells. The results for the recovery assays are shown the D panels of FIGS. 20-25.
# [8] = tested on: type II SMA fibroblasts (GM03813); test: SMN protein localization, gem counting in type II SMA fibroblasts; assay type: cell-based; settings: 100 nM-10 μM, 5 days
# Experimental: To validate the SMN2 promoter and exon 7 screens, the effects of compounds H, H (acid form), AY, F, BX, and BY were evaluated on the basis of expression and localization of SMN protein in type II SMA fibroblasts (GM03813). In a normal cell, SMN protein localized within the nucleus to discreet foci known as gems. In SMN-deficient SMA cells, the number of gems is greatly diminished. Although the function of gems is unknown, it is believed that they are somehow involved in the snRNP assembly function of SMN. Gem counting can, therefore, be considered an assay for SMN function.
# GM03813 fibroblasts were treated with different doses (100 nM-10 μM) of compounds H, H (acid form), AY, F, BX, and BY for 5 days. SMN immunostaining was then completed on these cells and the number of gems was counted in 100 randomly-selected nuclei. […] In fact, the gem counts at the highest dose of compound H approach those observed for carrier fibroblasts (GM03814). When compared against treatment with 1 μM D157495—a D156844 derivative, all of the compounds tested performed as well as or, even better than D157495.
# C3A hepatocyte cells [9] = test: ACTIVTox Cell Proliferation Assay; assay type: cell-based; settings: at a concentration of 100 μM
# mice [10] = test: Corneal kindled mouse model; assay type: in vivo; settings: mice i.p.; 100 mg/kg @ 0.5 hr
# C3A hepatocyte cells [11] = test: ACTIVTox LDH release assay; assay type: cell-based
# Experimental: Compounds A, I, H, and F were tested by Stem Cell Innovations, Inc. (Houston, TX) in their ACTIVTox® Human Liver Cell-based assays (using C3A hepatocyte cells). Specifically, the compounds were tested in the LDH release assay, which determines the release of Lactate DeHydrogenase (an indicator of cell death) at various concentrations of test compound.
# A concentration of 100 µM of test compound is a much higher level of exposure to liver cells than would ever be expected under physiological conditions. Therefore, using 100 μM as a standard test concentration (for comparative purposes), the ratio of the absorbance (which measures the level of LDH release) resulting from the presence of the test compound versus the negative control is a value known as the “average (or mean) fold control” (Average Fold Control=Average of Absorbance/Average of Negative Control).
# rats [12] = test: Pilocarpine-induced Status Epilepticus in Rats (prevention; intervention @ 30 min); settings: Rattus norvegicus
# Experimental: The animal testing was performed using the protocols developed in the Anticonvulsant Screening Program (ASP) at the National Institute of Neurological Disorders and Stroke (NINDS), National Institutes of Health (NIH).
# mice [13] = test: Minimal motor impairment (MID50), mice i.p.
# Experimental: as §1
# [14] = read-out: Prevention, Protection
structure (smiles),measurement,setting,value
"CCN(C)C(=O)CC(C)c1ccc(OC(F)(F)F)cc1 (centres unmarked) [BE, N-Ethyl-N-methyl-3-(4-trifluoromethoxy-phenyl)-butyramide]",activity in the MES test,rats [1],activity
same,"6 Hz (32 mA), fraction of animals",mice [2]; 100 mg/kg @ 0.5 hr,"2/4 @ 0.5 hr,"
same,CNS-stimulating effect observed,"mice [3]; mice, 300 mg/kg i.p., 30 minutes after injection",tremors
same,"MES, fraction of animals","mice [4]; mice i.p., 100 mg/kg @ 0.5 hr",1/3 @
same,activity in the MES test,mice [4]; mice,activity
"CC(CC(=O)N1CCCCC1)c1ccc(OC(F)(F)F)cc1 (centres unmarked) [BH, 1-Piperidin-1-yl-3-(4-trifluoromethoxy-phenyl)-butan-1-one]",activity in the s.c. MET test,mice [5]; mice,activity
same,CNS-stimulating effect observed,"mice [3]; mice, on injection",vocalization and hyperactivity
same,duration of vocalization and hyperactivity,"mice [3]; mice, on injection",5 to 6 min
same,SMN2 promoter activity,SMN2 promoter,increased SMN2 promoter activity
"CC(CC(=O)N1CCCC(C(N)=O)C1)c1ccc(OC(F)(F)F)cc1 (centres unmarked) [BT, 1-[3-(4-Trifluoromethoxy-phenyl)-butyryl]-piperidine-3-carboxylic acid amide]",effect produced in the mice,mice [3],diarrhea
"C[C@@H](CC(N)=O)c1ccc(OC(F)(F)F)cc1 (single isomer, unassigned) [BY, S-(+)-3-(4-Trifluoromethoxy-phenyl)butyramide]",TD50 at 0.25 hr,in vivo,104 mg/kg
same,"pain response, acute phase",mice [6],53 % of the control
same,"pain response, inflammatory phase",mice [6],24 % of the control
same,"6 Hz (32 mA), fraction of animals",mice [2]; 100 mg/kg @ 0.25 hr,1/4
same,"6 Hz (32 mA), fraction of animals",mice [2]; 100 mg/kg @ 0.5 hr,2/4
same,neuroprotective effect against H2O2 and MPP+ oxidative stresses (MTT and LDH assays),[7],potent dose-dependent neuroprotective effects
same,"gem counts (SMN immunostaining, 100 nuclei)",[8],increase gem counts in a dose-dependent manner
"CC(CC(N)=O)c1cccc(OC(F)(F)F)c1 (centres unmarked) [I, 3-[3-(trifluoromethoxy)-phenyl]butyramide]",activity in the MES test,rats [1],activity
same,"Cell Proliferation Assay, mean fold control",C3A hepatocyte cells [9],1.25
same,toxicity to proliferating cells,C3A hepatocyte cells [9],non-toxic
same,"Corneal Kindled, Average seizure score",mice [10],score is 0:
same,"Corneal Kindled, fraction of animals",mice [10],4/4 @
same,"6 Hz (32 mA), fraction of animals",mice [2]; 50 mg/kg @ 0.25 hr,3/4
same,"6 Hz (32 mA), fraction of animals",mice [2]; 50 mg/kg @ 0.5 hr,2/4
same,"6 Hz (32 mA), fraction of animals",mice [2]; 100 mg/kg @ 4.0 hr,2.0 and 1/4
same,"LDH release, mean fold control","C3A hepatocyte cells [11]; at 100 μM, C3A hepatocyte cells, value below 1.75 = no cyto- or hepatotoxic activity",1.03
same,"cyto- or hepatotoxicity, ACTIVTox data","C3A hepatocyte cells [11]; at physiologically relevant concentrations (i.e., <100 µM)",not cyto- or hepatotoxic
same,ED50,"mice [5]; mice, i.p.",≤ 100 mg/kg
same,"s.c. MET, fraction of animals","mice [5]; mice i.p., 100 mg/kg @ 0.5 hr","1/1 @0.5,"
same,"s.c. MET, fraction of animals","mice [5]; mice i.p., 100 mg/kg @ 4.0 hr",1/5 @ 4.0 hr
same,ED50,mice [4]; mice,< 100 mg/kg
same,"MES, fraction of animals","mice [4]; mice i.p., 100 mg/kg @ 0.5 hr","3/3 @0.5,"
same,"MES, fraction of animals","mice [4]; mice i.p., 100 mg/kg @ 4.0 hr",3/3 @ 4.0 hr
same,responders at 130 mg/kg,"rats [12]; 0.5 h, read-out: Intervention @ 30 min, Protection",100%
same,responders at 65 mg/kg,rats [12]; [14],86%
same,"MID50, fraction of animals","mice [13]; mice i.p., 100 mg/kg @ 0.5 hr","8/8 @0.50 hr,"
same,MID50 (median minimal motor impairment dose),"mice [13]; mice, i.p.",<100 mg/kg
"CC(CC(=O)N1CCN(C)CC1)c1ccc(OC(F)(F)F)cc1.Cl (centres unmarked) [BJ, 1-(4-Methyl-piperazin-1-yl)-3-(4-trifluoromethoxy-phenyl)-butan-1-one hydrochloride]",activity in the MES test,rats [1],activity
same,effect produced in the mice,mice [3],diarrhea
same,"MES, fraction of animals","mice [4]; mice i.p., 100 mg/kg @ 0.25 hr",2/3 @
same,activity in the MES test,mice [4]; mice,activity
"CC(CC(N)=O)c1ccc(N2CCOCC2)cc1 (centres unmarked) [Compound AY, 3-(4-Morpholin-4-yl-phenyl)-butyramide]","6 Hz (32 mA), fraction of animals",mice [2]; 100 mg/kg @ 1.0 hr,1/4
same,activity in the 6 Hz (minimal clonic seizure) model,mice [2],activity
same,"gem counts (SMN immunostaining, 100 nuclei)",[8],increase gem counts in a dose-dependent manner
same,SMN2 promoter activity,SMN2 promoter,increased SMN2 promoter activity
same,responders at 600 mg/kg,rats [12]; [14],38%
CC(CC(=O)O)c1ccc(OC(F)(F)F)cc1 (racemic) [H (acid form)],"gem counts (SMN immunostaining, 100 nuclei)",[8],increase gem counts in a dose-dependent manner
same,relative potency in increasing gem counts,[8],most potent
"CCC(CC(N)=O)c1ccc(C(F)(F)F)cc1 (centres unmarked) [Compound AA, 3-(4-Trifluoromethylphenyl)-pentanamide]",TD50 at 0.25 hr,in vivo,142 mg/kg
same,activity in the MES test,rats [1],activity
same,activity in the 6 Hz (minimal clonic seizure) model,mice [2],activity
same,neuroprotective effect against H2O2 and MPP+ oxidative stresses (MTT and LDH assays),[7],"statistically significant, dose-dependent neuroprotection"
same,ED50,"mice [5]; mice i.p., @ 0.5 hrs",149 mg/kg
same,activity in the s.c. MET test,mice [5]; mice,activity
same,ED50,"mice [4]; mice i.p., @ 0.5 hrs",86.6 mg/kg
same,activity in the MES test,mice [4]; mice,activity
same,"SMN2 promoter assay, particularly strong hits",SMN2 promoter; NSC34 BLA reporter cells,particularly strong hits
same,"Promoter (SMN2 promoter test, summary YES/NO)",SMN2 promoter; Table 13 summary,YES
same,SMN2 promoter activity,SMN2 promoter,increased SMN2 promoter activity
